From patent US5750362A, “Methods for identifying substances with a potential herbicidal or growth-regulating action by means of plant transporter proteins, the use of the transporter proteins, and substances with a herbicidal and growth-regulating action” (BASF Aktiengesellschaft, priority 1993, dated 1998)

What was measured:
[1] = molecular target: T1, sucrose transporter S21 (SoSUT1) (Spinacia oleracea, UniProt Q03411); assay: [14C]-sucrose uptake by yeast strain SUSY7 expressing the spinach sucrose transporter; type: cell-based; settings: [14C]-sucrose uptake, pH 3.8, read-out: Activity relative to the control [%]
T1 construct: expressed in transfected cells; host or cells: Saccharomyces cerevisiae SUSY7
T1 sequence (Q03411 1-525): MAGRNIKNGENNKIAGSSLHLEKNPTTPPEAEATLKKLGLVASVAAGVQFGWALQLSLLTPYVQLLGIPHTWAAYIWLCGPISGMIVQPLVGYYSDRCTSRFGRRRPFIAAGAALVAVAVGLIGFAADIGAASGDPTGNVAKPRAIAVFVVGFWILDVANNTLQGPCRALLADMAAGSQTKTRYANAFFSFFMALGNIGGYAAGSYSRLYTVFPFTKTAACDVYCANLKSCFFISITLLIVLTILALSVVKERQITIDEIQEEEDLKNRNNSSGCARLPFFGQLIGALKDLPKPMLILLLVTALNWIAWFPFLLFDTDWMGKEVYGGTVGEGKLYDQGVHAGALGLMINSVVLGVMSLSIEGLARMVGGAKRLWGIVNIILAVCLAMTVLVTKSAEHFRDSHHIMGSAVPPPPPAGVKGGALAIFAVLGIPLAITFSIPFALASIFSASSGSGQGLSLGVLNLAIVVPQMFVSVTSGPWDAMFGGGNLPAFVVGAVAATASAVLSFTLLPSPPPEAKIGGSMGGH
Method: Yeast cells of the strain SUSY7 (Riesmeier et al., 1992, EMBO J. 11: 4705-4713) are used to identify substances which have an inhibitory effect on sucrose transporters from spinach. Cells of this strain are transformed with a cDNA sequence which codes for the sucrose transporter S21 (SoSUT1) from spinach and which ensures expression of a functional transporter in the cells. The yeast cells are cultured in minimal medium (SD+2% (w/v) sucrose, pH 3.8) at 28° C. and harvested in the logarithmic phase (OD600 =0.6). The cells are spun down at 4000 rpm for 10 minutes and washed twice with SD medium. A cell concentration of c=50 g/l in SD medium is adjusted according to the wet weight of the cells, and 200 μl aliquot fractions are taken. Before the actual reaction, the cells are incubated in 10 mM glucose for 5 min and adjusted to pH 3.8 with MES buffer. The reaction is started by adding 200 μl of a 0.2 mmol/l [14C]-sucrose solution (3 mCi/mmol) in SD medium (pH 3.8). After 20, 60, 120, 180 and 240 seconds, 70 μl portions of the suspension are removed and pipetted into 4 ml of ice-cold water in order to stop the reaction. The cells are filtered off on glass fiber filters and washed twice with ice-cold water. The radioactivity on the filters is subsequently determined in a liquid scintillation counter. The substances to be tested are added 30 seconds before addition of the sucrose. The uptake of radiolabeled sucrose without addition of a potential inhibitor is determined as one control. Cells of the strain SUSY7 which are not transformed with cDNA sequences coding for a sucrose transporter from spinach are employed as further control.
The various tested substances, their concentration and the activity of the transporter, shown as percentage activity of the control in which no potential inhibitors were added, are indicated. Substances which specifically show an inhibitory effect on the sucrose transporter S21 (SoSUT1), are tested for their herbicidal and growth-regulating effect on whole plants.

[2] = molecular target: T2, amino-acid transporter AAP2 (Arabidopsis thaliana, UniProt Q38967); assay: Uptake of radiolabeled L-proline by yeast mutant 22457d-AAP2 expressing the plant amino-acid transporter; type: cell-based; settings: L-[14C]-proline uptake, read-out: Activity relative to control [%]
T2 construct: expressed in transfected cells; host or cells: Saccharomyces cerevisiae mutant 22574d (also printed 22457d)
T2 sequence (Q38967 1-493): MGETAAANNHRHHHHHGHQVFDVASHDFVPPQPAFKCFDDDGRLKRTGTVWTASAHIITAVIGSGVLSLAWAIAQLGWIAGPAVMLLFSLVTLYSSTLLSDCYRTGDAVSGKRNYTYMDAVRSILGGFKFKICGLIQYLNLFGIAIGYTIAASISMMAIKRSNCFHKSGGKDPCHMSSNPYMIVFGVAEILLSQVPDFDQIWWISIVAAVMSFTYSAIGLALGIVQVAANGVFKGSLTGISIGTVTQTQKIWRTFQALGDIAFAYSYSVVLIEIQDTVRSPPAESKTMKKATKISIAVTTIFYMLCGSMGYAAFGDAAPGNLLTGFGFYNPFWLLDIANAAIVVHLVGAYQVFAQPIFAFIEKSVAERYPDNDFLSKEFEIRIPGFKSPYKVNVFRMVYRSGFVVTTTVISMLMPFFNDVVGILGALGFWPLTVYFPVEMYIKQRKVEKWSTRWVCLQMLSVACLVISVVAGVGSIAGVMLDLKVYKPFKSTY
Method: Transporter investigations are carried out on the yeast mutant 22574d (Jauniaux & Grenson, Eur. J. Biochem. 190: 39-44, 1990), which harbors a mutation in the gene for amino-acid permease, and on the yeast mutant JT 16 (Tanaka and Fink, Gene 38: 205-214, 1985) which is incapable of histidine uptake, for identification of inhibitors of plant amino-acid transporters. These mutants are transformed with cDNA sequences which code for plant amino-acid transporters and lead to expression of functional transporters in the yeast cells. The cDNA sequences are cDNA sequences which code for the amino-acid transporters AAP1 and AAP2 from Arabidopsis thaliana (Frommer et al., 1993, Proc. Natl. Acad. Sci. USA 90: 5944-5948; Kwart et al., 1993, Plant J. 4:993-1002). For the measurements, cells of these mutants are cultured in minimal medium (NAAG+5 mmol/l proline) at 28° C. and harvested in the logarithmic phase (OD600 =0.6). The cells are spun down in a centrifuge at 4000 rpm and 4 degrees Celsius for 10 minutes and washed 2× with AUB buffer (modified AAB buffer, Ljungdahl et al.). The cell concentration is adjusted to an OD600 of 25 in AUB buffer.
100 μl portions of the cell suspension are mixed with 100 μl of a 1 mmol/l L-proline solution (18.5 kBq of L-[14C]-proline) and various concentrations of the appropriate substance to be investigated. After 20, 60, 120 and 180 seconds, a 50 μl aliquot is removed, diluted in 4 ml -of ice-cold AUB buffer and filtered through glass fever [sic] filter. In order to remove nonspecifically bound L-[14C]-proline, the cells are washed 2× with 4 ml of ice-cold water each time. The radioactivity retained on the glass filter is then measured in a liquid scintillation counter. The radioactivity reflects the amount of radiolabeled proline taken up by the cells. Uptake of radiolabeled proline without addition of a potential inhibitor is determined as one control. Cells of each of the mutants 22574d and JY 16 which have not been transformed with cDNA sequences coding for plant amino-acid transporters are used as further control. Results of measurements of this type on the mutants 22457d-AAP2 which expresses the amino-acid transporter AAP2 from Arabisopsis [sic] thaliana are shown in the following table.
For the investigations, yeast cells of the strain 22457d were transformed with a cDNA sequence which codes for the amino-acid transporter AAP2, and the uptake of radiolabeled proline in the presence of various substances was determined. The various substances tested, their concentration, and the activity of the transporter, shown as percentage activity of the control with which no potential inhibitors were added, are indicated.

Row | remaining activity at 500 µM ([1]; tested substance 0.5 mM) [%] | remaining activity at 1000 µM ([2]; tested substance 1 mM) [%] | SMILES | remaining activity at 10 µM ([1]; tested substance 10 μM) [%] | remaining activity at 10 µM ([2]; tested substance 10 μM) [%]
1 | – | – | N#CC(C#N)=NNc1cccc(Cl)c1 [CCCP] | 10 | 15.6 ± 2.1
2 | 6 | 3.1 ± 1.2 | CCOC(=O)OC(=O)OCC [DEPC, diethyl pyrocarbonate] | – | –
